Experimental data taken from US20100314318A1, “HALOGENATED AMIDE BIOCIDAL COMPOUNDS AND METHODS FOR TREATING WATER SYSTEMS AT NEAR NEUTRAL TO HIGH PH” (priority 2009, published 2010).
Read-outs that look alike come from different tables or passages of the source.

What was measured:
[1] = tested on: bacteria isolated from Cooling Tower water; experiment: Efficacy in sterile artificial Cooling Tower water (approx. pH 8.5); format: cell-based; conditions: 30° C.
[2] = tested on: Pseudomonas aeruginosa ATCC 10145; experiment: Bactericidal efficacy in synthetic salts water pH 8.5; format: cell-based; conditions: for Dosage required for 3 log10 bacterial reduction (ppm, active): 37° C.
Method: A sterile synthetic salts water is prepared and inoculated with Pseudomonas aeruginosa ATCC 10145 at about 10^7 CFU/mL. The synthetic water is prepared to contain (in 1 liter deionized water) the following: CaCl2, 0.2203 g; MgSO4, 0.1847 g; and NaHCO3, 0.2033 g. The final pH of the synthetic cooling water is adjusted to 8.5. Aliquots of the cell suspension are then treated with biocides at selected dosage levels. The same contaminated water sample without biocide is used as control. After incubating at 37° C. for different time intervals, numbers of surviving bacteria are enumerated using a serial dilution method. After incubating for 24 hr, all cell suspensions are reinoculated with Pseudomonas aeruginosa ATCC 10145 at 10^6 CFU/mL. The efficacy results for […]

[3] = tested on: amoeba (Acanthamoeba polypohaga) fed Legionella pneumophila (AfLp); format: cell-based; conditions: Amoeba fed Legionella
[4] = tested on: Free Legionella; format: cell-based, Legionella pneumophila
[5] = tested on: bacteria isolated from field; experiment: Efficacy in semi-synthetic metal working fluid; format: cell-based; conditions: room temperature, MWF

Row | Structure (SMILES) | Minimum biocide dosage (ppm, active) needed for at least 3 log10 bacterial reduction ([1]; 1 h) [ppm] | Minimum biocide dosage (ppm, active) needed for at least 3 log10 bacterial reduction ([1]; 3 h) [ppm] | Minimum biocide dosage (ppm, active) needed for at least 3 log10 bacterial reduction ([1]; 24 h) [ppm] | Minimum biocide dosage (ppm, active) needed for at least 3 log10 bacterial reduction ([1]; 48 h, reinoculated) [ppm] | Minimum biocide dosage (ppm, active) needed for at least 3 log10 bacterial reduction ([1]; 72 h, reinoculated) [ppm] | Minimum biocide dosage (ppm, active) needed for at least 3 log10 bacterial reduction ([1]; 96 h, reinoculated) [ppm] | Active concentration (ppm) required for complete kill (6 log reduction) ([3]; 2 hours) [ppm] | Active concentration (ppm) required for complete kill (6 log reduction) ([3]; 24 hours) [ppm] | Active concentration (ppm) required for complete kill (6 log reduction) ([4]; 2 hours) [ppm] | Active concentration (ppm) required for complete kill (6 log reduction) ([4]; 24 hours) [ppm] | other results
1 | CC1(C)C(=O)N(Cl)C(=O)N1Br [BCDMH, 1-Bromo-3-chloro-5,5-dimethylhydantoin] | 7.0 | 26.0 | >70.0 | >70.0 | >70.0 | >70.0 | – | – | – | – | –
2 | N#CC(Br)(Br)C(=O)NCCCO [DBCHA, 2,2-Dibromo-2-cyano-N-(3-hydroxypropyl)acetamide] | – | – | – | – | – | – | – | – | – | – | Dosage required for 3 log10 bacterial reduction (ppm, active) ([2]; 1 hr, pH 8.5): 4.4 ppm; Dosage required for 3 log10 bacterial reduction (ppm, active) ([2]; 3 hr, pH 8.5): 4.4 ppm; Dosage required for 3 log10 bacterial reduction (ppm, active) ([2]; 24 hr, pH 8.5): 9.9 ppm; Dosage required for 3 log10 bacterial reduction (ppm, active) ([2]; 48 hr, pH 8.5, reinoculated after 24 hr): 33.3 ppm; long term bactericidal efficacy compared with DBNPA ([2]; after 48 hour incubation and rechallenge with P. aeruginosa cells): better long term efficacy than DBNPA
3 | CCCCCCCCCC[N+](C)(C)CCCCCCCCCC.[Cl-] [DDAC, didecyl dimethyl ammonium chloride] | – | – | – | – | – | – | 60 | 40 | 20 | 15 | –
4 | CCCCCCCC[N+](C)(C)CCCCCCCC.[Cl-] [Dioctyl dimethyl ammonium chloride] | 29.0 | 29.0 | 56.0 | 56.0 | 79.0 | >79.0 | – | – | – | – | –
5 | O=CCCCC=O [Glutaraldehyde] | 36.0 | 26.0 | 26.0 | 51.0 | 51.0 | 71.0 | 20 | 15 | 10 | 5 | –
6 | CCN1CN(CC)CN(CC)C1 [Triazine, 1,3,5-triethylhexahydro-1,3,5-triazine] | – | – | – | – | – | – | – | – | – | – | Minimum dosage (ppm, active) required for at least 3 log10 reduction in bacterial counts ([5]; 2 h): 1934 ppm; Minimum dosage (ppm, active) required for at least 3 log10 reduction in bacterial counts ([5]; 4 h): 1487 ppm; Minimum dosage (ppm, active) required for at least 3 log10 reduction in bacterial counts ([5]; 24 h): 1144 ppm; Minimum dosage (ppm, active) required for at least 3 log10 reduction in bacterial counts ([5]; 48 h): 1144 ppm; Minimum dosage (ppm, active) required for at least 3 log10 reduction in bacterial counts ([5]; 72 h): 1144 ppm; Minimum dosage (ppm, active) required for at least 3 log10 reduction in bacterial counts ([5]; 96 h): 1144 ppm
